Read-outs that look alike come from different tables or passages of the source.
Assays:
human D4 receptor [1] = molecular target: T1, human D4 receptor (Homo sapiens (Human), UniProt P21917); experiment: Test 1: agonistic activity for human D4 receptor (aequorin/Gα16 luminescence in CHO-K1 cell); type: cell-based; settings: for Emax: CHO-K1; for Emax / D4 agonistic activity Emax: 100% = 10 μmol/L endogenous ligand; for EC50: CHO-K1 cell, aequorin luminescence
Experimental: (§1) Test 1: Evaluation of Agonistic Activity for Human 5-HT1A Receptor and Human D4 Receptor
(§2) Aequorin, Gα16 proteins, and each receptor were transiently expressed in CHO-K1 cell (Chinese hamster ovary), and seeded to 384-well plate. The plate was incubated in a CO2 incubator at 37° C. for 24 hours. Each example compound dissolved in DMSO was added thereto, and the change of luminescence amount was measured with Hamamatsu FDSS/μCELL System (Hamamatsu Photonics).

human 5-HT1A receptor [2] = molecular target: T2, human 5-HT1A receptor (Homo sapiens (Human), UniProt P08908); experiment: Test 2: binding activity to human 5-HT1A receptor ([3H] 8-OH-DPAT, CHO cell membrane); settings: [3H] 8-OH-DPAT; read-out: 5-HT1A binding affinity (Ki value)
Experimental: (§3) Test 2: Evaluation of Binding Activity to Human 5-HT1A Receptor, Human D4 Receptor, and Human D2 Receptor
(§4) CHO cell membrane fraction in which human 5-HT1A receptor, human D4 receptor, and human D2 receptor were expressed was purchased from PerkinElmer Co., Ltd. In the evaluation test of binding, the test compound dissolved in DMSO, each receptor membrane preparation diluted with buffer solution, and [3H] […] The nonspecific binding to each receptor was evaluated by a competition binding experiment in the presence of 10 μmol/L 8-OH-DPAT, 10 μmol/L dopamine, or 10 μmol/L spiperone, respectively.

human 5-HT1A receptor [3] = molecular target: T2, human 5-HT1A receptor; experiment: Test 1: agonistic activity for human 5-HT1A receptor (aequorin/Gα16 luminescence in CHO-K1 cell); type: cell-based; settings: for Emax: CHO-K1; for Emax / 5-HT1A agonistic activity Emax: 100% = 10 μmol/L endogenous ligand; for EC50: CHO-K1 cell, aequorin luminescence
Experimental: as §1, §2

human D2 receptor = human D2 receptor (Homo sapiens (Human), UniProt P14416); experiment: Test 2: binding activity to human D2 receptor ([3H] spiperone, CHO cell membrane); settings: [3H] spiperone; read-out: D2 binding affinity (Ki value)
Experimental: as §3, §4

human D4 receptor [4] = molecular target: T1, human D4 receptor; experiment: Test 2: binding activity to human D4 receptor ([3H] dopamine, CHO cell membrane)
Experimental: as §3, §4

hERG channel = hERG channel (Homo sapiens (Human), UniProt Q12809); experiment: Test 5-2: activity for inhibiting hERG channel (whole-cell patch clamp, hERG-CHO cell, Qube); type: cell-based; settings: read-out: hERG inhibition IC50
Experimental: Test 5-2: Evaluation of Activity for Inhibiting hERG Channel
The activity of the present compound for inhibiting hERG channel was measured by whole-cell patch clamp method with auto patch clamp system, using CHO cell wherein hERG channel involved in human rapidly activating delayed rectifier potassium current (IKr) was forcibly expressed.
hERG-CHO cell purchased from ChanTest was incubated at 37° C. in a CO2 incubator, and the cell was exfoliated from the flask with trypsin to prepare a cell suspension, shortly before the hERG current measurement.
Extracellular fluid: 2 mmol/L CaCl2, 1 mmol/L MgCl2, 10 mmol/L HEPES, 4 mmol/L KCl, 145 mmol/L NaCl, 10 mmol/L glucose
Intracellular fluid: 10 mmol/L HEPES, 10 mmol/L EGTA, 20 mmol/L KCl, 130 mmol/L KF
Test compound solution: The compound was dissolved in DMSO by adjusting the concentration to 2 mmol/L or 20 mmol/L to prepare each test compound solution. […] (Measurement of Current Value and Data Analysis)
The cell suspension, the extracellular fluid, the intracellular fluid, and the measurement plate were set in an auto patch clamp system, and the hERG current was measured by whole-cell patch clamp method. The voltage-protocol was as follows: the holding potential was adjusted to −80 mV, the depolarizing pulse was added at −50 mV to +20 mV for 5 seconds, the repolarizing pulse was added at −50 mV for 5 seconds, then the potential was returned to the holding potential. Each pulse interval was 15 seconds. The data analysis was carried out with Qube Assay Software (Sophion Scientific). The test was carried out applying increscently 4 concentrations of each test compound, and the average of the peak tail currents that were obtained by the last 3 stimulations in each applied concentration was made to be the evaluated data. By using the current inhibition rate for the pre-applied current at each concentration of each test compound, IC50 value was calculated by Hill equation with the software.

[5] = Test 3-1: metabolic stability test of human liver microsome (0.1 mg/mL); type: in vitro ADME; settings: test compound 0.1 μmol/L, 37° C., 30 minutes
Experimental: Test 3-1: Metabolic Stability Test of Human Liver Microsome
The stability of the present compounds for human liver microsome metabolism was evaluated as mentioned below. The used human liver microsome was obtained from Xenontech. Human liver microsome, NADPH, and each test compound were mixed in 25 mmol/L phosphate buffer solution (pH 7.4) to adjust each concentration as shown below, and the mixture was incubated at 37° C. for 30 minutes. • human liver microsome: 0.1 mg/mL • NAPDH: 3.2 mmol/L • test compound: 0.1 μmol/L
The residual ratio of the test compound in each sample after the incubation for 30 minutes was measured with a LC-MS, and the metabolic stability of human liver microsome was calculated about each test compound with the following formula. Metabolic stability of human liver microsome (mL/min/mg protein)=−LN (residual ratio)/“reaction time”/“concentration of human liver microsome”

[6] = [3H] dopamine, read-out: D4 binding affinity (Ki value)

T1 sequence (P21917 whole entry): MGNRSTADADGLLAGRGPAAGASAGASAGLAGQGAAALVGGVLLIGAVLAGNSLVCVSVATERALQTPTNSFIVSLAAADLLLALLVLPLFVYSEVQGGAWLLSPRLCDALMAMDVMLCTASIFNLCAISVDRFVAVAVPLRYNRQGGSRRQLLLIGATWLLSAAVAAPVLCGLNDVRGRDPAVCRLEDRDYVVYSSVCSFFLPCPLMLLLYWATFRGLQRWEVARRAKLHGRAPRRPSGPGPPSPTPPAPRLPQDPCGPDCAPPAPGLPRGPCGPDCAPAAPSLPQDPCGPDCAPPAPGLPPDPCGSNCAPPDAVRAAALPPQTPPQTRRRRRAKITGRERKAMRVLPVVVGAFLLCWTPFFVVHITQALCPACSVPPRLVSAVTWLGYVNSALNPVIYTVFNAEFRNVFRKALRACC
Chain of hERG channel (Q12809 whole entry): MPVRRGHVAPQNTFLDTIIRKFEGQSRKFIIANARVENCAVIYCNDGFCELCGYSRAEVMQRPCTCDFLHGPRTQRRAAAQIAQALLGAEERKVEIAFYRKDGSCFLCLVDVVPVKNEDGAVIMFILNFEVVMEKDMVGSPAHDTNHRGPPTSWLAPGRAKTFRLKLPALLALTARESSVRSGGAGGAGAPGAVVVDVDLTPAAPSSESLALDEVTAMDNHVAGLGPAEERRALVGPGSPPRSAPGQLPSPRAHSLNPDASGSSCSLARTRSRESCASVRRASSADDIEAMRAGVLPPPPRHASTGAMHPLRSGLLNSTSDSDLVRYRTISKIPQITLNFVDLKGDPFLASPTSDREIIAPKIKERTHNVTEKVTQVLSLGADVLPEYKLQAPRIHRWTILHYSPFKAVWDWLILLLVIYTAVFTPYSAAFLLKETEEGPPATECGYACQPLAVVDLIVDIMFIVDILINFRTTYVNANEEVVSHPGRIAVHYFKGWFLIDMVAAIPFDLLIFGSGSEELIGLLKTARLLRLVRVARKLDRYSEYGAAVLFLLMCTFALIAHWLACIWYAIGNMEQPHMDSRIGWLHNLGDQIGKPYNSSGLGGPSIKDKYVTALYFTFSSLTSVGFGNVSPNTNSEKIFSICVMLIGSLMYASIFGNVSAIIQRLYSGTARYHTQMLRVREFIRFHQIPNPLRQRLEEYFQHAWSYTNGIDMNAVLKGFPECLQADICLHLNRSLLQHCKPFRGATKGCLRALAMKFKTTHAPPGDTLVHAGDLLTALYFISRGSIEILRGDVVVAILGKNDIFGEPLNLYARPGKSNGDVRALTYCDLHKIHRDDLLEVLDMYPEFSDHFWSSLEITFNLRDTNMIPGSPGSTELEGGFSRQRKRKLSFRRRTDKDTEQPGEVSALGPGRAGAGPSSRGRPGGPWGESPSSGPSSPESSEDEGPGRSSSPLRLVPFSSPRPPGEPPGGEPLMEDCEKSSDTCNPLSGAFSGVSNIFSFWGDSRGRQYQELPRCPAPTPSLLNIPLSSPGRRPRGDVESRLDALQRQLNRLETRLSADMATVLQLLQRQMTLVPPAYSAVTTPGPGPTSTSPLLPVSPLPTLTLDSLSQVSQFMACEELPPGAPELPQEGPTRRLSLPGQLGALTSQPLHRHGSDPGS
Chain of human D2 receptor (P14416 whole entry): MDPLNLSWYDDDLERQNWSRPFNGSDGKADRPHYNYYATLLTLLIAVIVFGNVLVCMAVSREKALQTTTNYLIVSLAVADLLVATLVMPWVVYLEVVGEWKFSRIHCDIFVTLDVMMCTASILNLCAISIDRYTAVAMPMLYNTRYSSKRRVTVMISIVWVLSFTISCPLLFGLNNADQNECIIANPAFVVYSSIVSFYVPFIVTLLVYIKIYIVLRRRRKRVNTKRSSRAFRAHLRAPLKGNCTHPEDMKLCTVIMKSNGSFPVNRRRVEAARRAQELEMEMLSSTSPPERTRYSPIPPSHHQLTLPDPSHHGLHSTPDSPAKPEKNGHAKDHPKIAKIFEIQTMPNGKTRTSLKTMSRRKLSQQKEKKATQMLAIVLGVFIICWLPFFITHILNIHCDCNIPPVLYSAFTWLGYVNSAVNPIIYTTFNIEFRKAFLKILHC
T2 sequence (P08908 whole entry): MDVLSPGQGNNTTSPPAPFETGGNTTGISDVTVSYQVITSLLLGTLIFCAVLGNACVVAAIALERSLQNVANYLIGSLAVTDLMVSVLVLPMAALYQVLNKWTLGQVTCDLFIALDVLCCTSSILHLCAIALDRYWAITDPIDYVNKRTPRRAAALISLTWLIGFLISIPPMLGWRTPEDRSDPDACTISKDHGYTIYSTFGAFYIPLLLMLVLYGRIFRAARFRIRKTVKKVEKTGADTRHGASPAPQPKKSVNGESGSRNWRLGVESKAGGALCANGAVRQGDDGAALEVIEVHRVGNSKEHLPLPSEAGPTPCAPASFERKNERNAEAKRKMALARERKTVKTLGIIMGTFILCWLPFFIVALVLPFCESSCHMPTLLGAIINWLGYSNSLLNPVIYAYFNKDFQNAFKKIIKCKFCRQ

| Emax (human D4 receptor [1]) | EC50 (human D4 receptor [1]) | Ki (human 5-HT1A receptor [2]) | Emax (human 5-HT1A receptor [3]) | EC50 (human 5-HT1A receptor [3]) | Ki (human D2 receptor) | Ki (human D4 receptor [4]; [6]) | SMILES | IC50 (hERG channel) | Metabolic stability of human liver microsome [5] | Ki (human D4 receptor [4]) | D4 agonistic activity Emax (human D4 receptor [1]) | 5-HT1A agonistic activity Emax (human 5-HT1A receptor [3]) |
| --- | --- | --- | --- | --- | --- | --- | --- | --- | --- | --- | --- | --- |
| 59% | 62 nM | 166 nM | 28% | 632 nM | > 10 µM | 408 nM | O=C(NCCN1CCC(c2cccc(C(F)(F)F)n2)CC1)C1CCOC1 (stereo not drawn) [Example 23] | – | – | – | – | – |
| 49% | 30 nM | 20 nM | 46% | 67 nM | 3.33 µM | 423 nM | O=C(NCCN1CCC(c2cccc(C(F)(F)F)n2)CC1)C1CCCO1 (stereo not drawn) [Example 25] | > 10 µM | <0.05 mL/min/mg protein | – | – | – |
| 57% | 57 nM | 58 nM | 25% | 595 nM | > 10 µM | 2240 nM | Cc1cccc(C2CCN(CCNC(=O)C3CCOC3)CC2)n1 (stereo not drawn) [Example 22] | – | – | – | – | – |
| 51% | 1650 nM | 77 nM | 44% | 570 nM | > 10 µM | 2470 nM | CO[C@H]1CC[C@H](C(=O)NCCN2CCC(c3cccc(C(F)(F)F)n3)CC2)CC1 [Example 27] | – | – | – | – | – |
| 52% | 64 nM | 278 nM | 27% | 525 nM | > 10 µM | 2260 nM | N#Cc1cccc(C2CCN(CCNC(=O)C3CCOCC3)CC2)n1 [Example 35, N-{2-[4-(6-Cyanopyridin-2-yl)piperidin-1-yl]ethyl}-tetrahydro-2H-pyran-4-carboxamide] | – | – | – | – | – |
| 62% | 13 nM | 21 nM | 83% | 22 nM | > 10 µM | 119 nM | COc1cccc(C2CCN(CCNC(=O)C3CCOCC3)CC2)n1 [Example 33] | > 10 µM | <0.05 mL/min/mg protein | – | – | – |
| 58% | 31 nM | 132 nM | 38% | 279 nM | > 10 µM | 120 nM | Nc1cccc(C2CCN(CCNC(=O)C3CCOCC3)CC2)n1 [Example 36, N-{2-[4-(6-Aminopyridin-2-yl)piperidin-1-yl]ethyl}-tetrahydro-2H-pyran-4-carboxamide] | – | – | – | – | – |
| 55% | 15 nM | 10 nM | 42% | 22 nM | > 10 µM | 56 nM | O=C(NCCN1CCC(c2cccc(C(F)F)n2)CC1)C1CCOCC1 [Example 34] | 5.5 µM | <0.05 mL/min/mg protein | – | – | – |
| 44% | 37 nM | 28 nM | 69% | 47 nM | 2.47 µM | 104 nM | O=C(NCCN1CCC(c2cccc(OC(F)(F)F)n2)CC1)C1CCOCC1 [Example 28] | > 10 µM | <0.05 mL/min/mg protein | – | – | – |
| 62% | 32 nM | 27 nM | 50% | 67 nM | > 10 µM | 3380 nM | Cc1cccc(C2CCN(CCNC(=O)C3CCCO3)CC2)n1 (stereo not drawn) [Example 24] | – | – | – | – | – |
| 57% | 52 nM | 108 nM | 40% | 343 nM | > 10 µM | 73 nM | CNc1cccc(C2CCN(CCNC(=O)C3CCOCC3)CC2)n1 [Example 37, N-(2-{4-[6-(Methylamino)pyridin-2-yl]piperidin-1-yl}ethyl)-tetrahydro-2H-pyran-4-carboxamide] | – | – | – | – | – |
| 36% | 3390 nM | 79 nM | 43% | 395 nM | > 10 µM | 1900 nM | CO[C@H]1CC[C@H](C(=O)NCCN2CCC(c3cccc(C)n3)CC2)CC1 [Example 26] | – | – | – | – | – |
| 67% | 7 nM | 42 nM | 51% | 67 nM | > 10 µM | 96 nM | O=C(NCCN1CCC(c2cccc(F)n2)CC1)C1CCOCC1 [Example 32] | – | – | – | – | – |

| SMILES | Emax (human D4 receptor [1]) | EC50 (human D4 receptor [1]) | Ki (human 5-HT1A receptor [2]) | Emax (human 5-HT1A receptor [3]) | EC50 (human 5-HT1A receptor [3]) | Ki (human D2 receptor) | Ki (human D4 receptor [4]; [6]) | IC50 (hERG channel) | Metabolic stability of human liver microsome [5] | Ki (human D4 receptor [4]) | D4 agonistic activity Emax (human D4 receptor [1]) | 5-HT1A agonistic activity Emax (human 5-HT1A receptor [3]) |
| --- | --- | --- | --- | --- | --- | --- | --- | --- | --- | --- | --- | --- |
| Cc1cccc(C2=CCN(CCNC(=O)[C@H]3C[C@@H]4CC[C@H]3O4)CC2)n1 [Example 13] | 55% | < 10 nM | 1.1 nM | 48% | < 10 nM | > 10 µM | – | > 10 µM | <0.05 mL/min/mg protein | 24 nM | – | – |
| COCC(C)(C)C(=O)NCCN1CC=C(c2cccc(C)n2)CC1 [Example 17] | 51% | 44 nM | 26 nM | 30% | 94 nM | > 10 µM | – | – | – | 91 nM | – | – |
| O=C(NCCN1CC=C(c2cccc(C(F)(F)F)n2)CC1)C1CCOCC1 [Example 19] | 84% | 9 nM | 0.8 nM | 65% | < 10 nM | > 10 µM | – | – | – | 8 nM | – | – |
| COCC(C)(C)C(=O)NCCN1CCC(c2cccc(C(F)(F)F)n2)CC1 [Example 6] | – | < 10 nM | 37 nM | – | 44 nM | > 10 µM | 101 nM | – | <0.01 mL/min/mg protein | – | 58% | 96% |
| Cc1cccc(C2=CCN(CCNC(=O)C3CCC(F)(F)CC3)CC2)n1 [Example 14] | 53% | < 10 nM | 0.1 nM | 41% | < 10 nM | 2.44 µM | – | 8.1 µM | 0.084 mL/min/mg protein | 3 nM | – | – |
| CC(C)(C)C(=O)NCCN1CC=C(c2cccc(C(F)(F)F)n2)CC1 [Example 31, 2,2-Dimethyl-N-{2-[6-(trifluoromethyl)-3′,6′-dihydro[2,4′-bipyridin]-1′ (2′H)-yl]ethyl}propanamide] | 52% | < 10 nM | 0.3 nM | 40% | 35 nM | 1.28 µM | – | > 10 µM | <0.05 mL/min/mg protein | 2.9 nM | – | – |
| Cc1cccc(C2=CCN(CCNC(=O)C(C)(C)C)CC2)n1 [Example 30, 2,2-Dimethyl-N-[2-(6-methyl-3′,6′-dihydro[2,4′-bipyridin]-1′ (2′H)-yl)ethyl]propanamide] | 59% | < 10 nM | 1.4 nM | 36% | 27 nM | > 10 µM | – | > 10 µM | 0.114 mL/min/mg protein | 14 nM | – | – |
| COCC(C)(C)C(=O)NCCN1CCC(c2cccc(C)n2)CC1 [Example 5] | – | 55.8 nM | 80 nM | – | 42 nM | > 10 µM | 170 nM | – | <0.01 mL/min/mg protein | – | 57% | 100% |

Source: patent publication US10800755B2, “2,6-disubstituted pyridine derivative” (Sumitomo Dainippon Pharma Co., Ltd., priority 2017, dated 2020)
